Test results reported in paper PMC8235783, “Radiopharmaceutical Formulation and Preclinical Testing of ^68Ga-Labeled DOTA-MGS5 for the Regulatory Approval of a First Exploratory Clinical Trial” (Pharmaceuticals, 2021).

Tests used:
[1] = biological target: T1, CCK2R on A431-CCK2R cells (human CCK2R) (Homo sapiens, UniProt P32239); experiment: Receptor affinity competition assay against [125I][3-iodo-Tyr12,Leu15]gastrin-I; assay type: binding; conditions: competition against [125I][3-iodo-Tyr12,Leu15]gastrin-I on A431-CCK2R cells, 1 h at RT; n = 3 (Ga-DOTA-MGS5 n = 1)
T1 construct: expressed in transfected cells; host or cells: A431 human epidermoid carcinoma cells, stably transfected (provided by Dr. Luigi Aloj)
T1 sequence (P32239 1-447): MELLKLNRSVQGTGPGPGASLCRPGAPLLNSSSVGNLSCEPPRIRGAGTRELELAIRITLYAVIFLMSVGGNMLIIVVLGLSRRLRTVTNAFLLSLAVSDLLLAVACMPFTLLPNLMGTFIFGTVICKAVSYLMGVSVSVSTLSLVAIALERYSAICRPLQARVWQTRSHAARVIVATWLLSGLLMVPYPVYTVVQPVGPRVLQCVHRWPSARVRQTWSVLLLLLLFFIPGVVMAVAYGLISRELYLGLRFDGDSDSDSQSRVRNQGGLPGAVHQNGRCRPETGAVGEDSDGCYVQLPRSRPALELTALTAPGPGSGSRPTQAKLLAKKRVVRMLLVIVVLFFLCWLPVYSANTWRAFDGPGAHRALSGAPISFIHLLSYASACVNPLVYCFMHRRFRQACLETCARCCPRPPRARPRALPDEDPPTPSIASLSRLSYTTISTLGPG
Method: A431-CCK2R and A431-mock cells were cultured in Dulbecco’s Modified Eagle Medium (DMEM) and AR42J cells were cultured in RPMI-1640 medium, both supplemented with 10% (v/v) fetal bovine serum and 5 mL of a 100x penicillin–streptomycin–glutamine mixture at 37 °C in a humidified 95% air/5% CO2 atmosphere. Media and supplements were purchased from Invitrogen Corporation (Lofer, Austria).
Binding assays on A431-CCK2R cells were carried out as previously described [37]. The cells were incubated with increasing concentrations of the peptide conjugates and [^125I][3-iodo-Tyr^12,Leu^15]gastrin-I (~20,000 cpm) for 1 h at RT. Half-maximum inhibitory concentration (IC50) values were calculated after nonlinear regression using Origin software (Microcal Origin 6.1, Northampton, MA, USA).

[2] = 14-day extended single-dose intravenous toxicity study in rats; assay type: in vivo
Method: In the preclinical evaluation of the safety profile of DOTA-MGS5, a targeted approach was followed for the 14-day extended single-dose toxicity study conducted in male Wistar rats. Instead of performing the study in animals of both sexes at a single dose level, the non-clinical evaluation was confined to male animals, including, however, three different dose levels based on mg/kg scaling and body surface scaling (applying a factor of 6.2). Considering a maximum dose of 50 µg administered to patients and an exposure margin of 100-fold the clinical dose, a dose level of 0.5 mg/kg body weight was calculated for the study and used as medium dose. Two additional dose levels of 0.1 mg/kg body weight and 2.5 mg/kg body weight were selected to allow a more accurate evaluation of the safety profile. Based on the preclinical biodistribution studies, the stomach, pancreas, and kidneys were identified as the main target organs. In addition to these organs, the liver and colon as potential additional routes of excretion, as well as spleen and sternum (including bone marrow), were also included in the histopathological evaluation.
A NOAEL (no observed adverse effect level) of 2.5 mg/kg body weight was established from the study for the single administration of DOTA-MGS5. When considering body surface scaling from rats to humans, the NOAEL of 2.5 mg/kg body weight translates to a HED (human equivalent dose) of 0.4 mg/kg body weight. By applying a safety factor of 100, a maximum dose of 4 µg/kg body weight was established for human subjects receiving the initial clinical dose. For the first PET/CT examinations with ^68Ga-DOTA-MGS5, a maximum dose of 50 µg could be established as clinical dose, which remains well below the maximum dose of 4 µg/kg body weight.
The safety of the intravenous injection was tested for unlabeled DOTA-MGS5 in a GLP-compliant 14-day extended single-dose intravenous toxicity study in rats using the intravenous route of administration. The study was designed following a targeted microdose approach based on the ICH guideline M3 (R2) on non-clinical safety studies for the conduct of human clinical trials and marketing authorization for pharmaceuticals (EMA/CPMP/ICH/286/1995, December 2009), as well as the draft guideline on the non-clinical requirements for radiopharmaceuticals (EMA/CHMP/SWP/686140/2018, 15 November 2018). The study was conducted in a GLP-compliant laboratory (BSL BIOSERVICE Scientific Laboratories Munich GmbH, Planegg/Munich, Germany) using 60 6–7-week-old male healthy Wistar rats (Crl: WI(Han), Full Barrier, Charles River, Sulzfeld, Germany). […] Body weight and food consumption was determined on a weekly basis. […]

[3] = injected dose of 150 MBq; cited from earlier work
Method: When extrapolating the biodistribution data from mice to humans, a whole-body effective dose of 0.0102 mSv/MBq for men and of 0.0131 mSv/MBq for women was calculated. In Table 4, a summary of the calculated organ absorbed doses is given. At a maximum injected activity of 185 MBq, a whole-body radiation dose of 1.9–2.4 mSv can be anticipated for a PET examination with ^68Ga-DOTA-MGS5. The radiation exposure from the radioactive substance is in a similar range of a low-dose CT scan of 3–6 mSv. Due to the potential hazards of ionizing radiation, the dose of the PET/CT scan should be kept a ...

[4] = biological target: T2, A431-CCK2R cells (human CCK2R) (Homo sapiens, UniProt P32239); conditions: 1 h incubation; cited from earlier work
T2 construct: expressed in transfected cells; host or cells: A431 human epidermoid carcinoma cells, stably transfected (provided by Dr. Luigi Aloj)
T2 sequence (P32239 1-447): T1 sequence (P32239 1-447)
Method: For the time point of 1 h incubation, a cell internalization of ~20% was reported for ^177Lu-DOTA-PP-F11N in A431-CCK2R cells.

[5] = biological target: T3, AR42J cells with physiological expression of rat CCK2R (Rattus norvegicus, UniProt P30553); conditions: 4 h after incubation; cited from earlier work
T3 construct: In AR42J cells with physiological expression of rat CCK2R; host or cells: AR42J rat pancreatic tumor cells
T3 sequence (P30553 1-452): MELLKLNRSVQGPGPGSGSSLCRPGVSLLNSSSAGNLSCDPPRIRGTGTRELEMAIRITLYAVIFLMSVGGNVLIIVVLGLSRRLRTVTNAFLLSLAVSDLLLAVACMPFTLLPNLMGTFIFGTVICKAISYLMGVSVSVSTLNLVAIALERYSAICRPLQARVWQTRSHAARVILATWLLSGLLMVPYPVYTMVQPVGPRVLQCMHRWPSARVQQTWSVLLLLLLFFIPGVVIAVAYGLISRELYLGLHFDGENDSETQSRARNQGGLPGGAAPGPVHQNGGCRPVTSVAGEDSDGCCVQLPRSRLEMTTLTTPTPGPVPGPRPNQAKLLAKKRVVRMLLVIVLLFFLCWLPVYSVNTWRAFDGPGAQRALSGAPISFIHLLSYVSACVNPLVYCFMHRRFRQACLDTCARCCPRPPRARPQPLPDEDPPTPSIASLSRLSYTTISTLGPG

[6] = in vivo; conditions: female, BALB/c, mouse, iv, 20 pmol peptide
Method: The biodistribution profile of ^68Ga-DOTA-MGS5 in female BALB/c mice was evaluated for the time points of 5, 20, 60, and 90 min post injection (p.i.).
Biodistribution studies evaluating the pharmacokinetics and tissue distribution of ^68Ga-DOTA-MGS5 were performed in 6-week-old female BALB/c mice (n = 12). Groups of three mice for each time point were injected intravenously via a lateral tail vein with ~1 MBq of ^68Ga-DOTA-MGS5 corresponding to 20 pmol peptide. The mice were euthanized by cervical dislocation 5, 20, 60, and 90 min after injection and different tissues (blood, lung, heart, muscle, spleen, intestine, liver, kidneys, pancreas, stomach, and femur) were removed, weighed, and their radioactivity measured in a gamma-counter together with a standard and the residual body. Results were expressed as percentage of injected activity per organ (% IA) and per gram tissue (% IA/g).

[7] = total radioactivity, uptake in blood
[8] = total radioactivity, uptake in femur
[9] = total radioactivity, uptake in heart
[10] = total radioactivity, uptake in intestine
[11] = total radioactivity, uptake in kidneys
[12] = total radioactivity, uptake in liver
[13] = total radioactivity, uptake in lung
[14] = total radioactivity, uptake in muscle
[15] = total radioactivity, uptake in pancreas
[16] = total radioactivity, uptake in spleen
[17] = total radioactivity, uptake in stomach

Molecule: CCCC[C@@H](C(=O)N[C@@H](CC(=O)O)C(=O)N[C@@H](Cc1cccc2ccccc12)C(N)=O)N(C)C(=O)[C@H](Cc1c[nH]c2ccccc12)NC(=O)CNC(=O)[C@H](Cc1ccc(O)cc1)NC(=O)[C@H](C)NC(=O)[C@@H](CCC(=O)O)NC(=O)CN1CCN(CC(=O)O)CCN(CC(=O)O)CCN(CC(=O)O)CC1 [DOTA-MGS5, DOTA-DGlu-Ala-Tyr-Gly-Trp-(N-Me)Nle-Asp-1-Nal-NH2]
- IC50 [1]: 0.5 ± 0.1 nM
- treatment-related mortality or clinical symptoms ([2]; i.v. 0.1, 0.5 and 2.5 mg/kg BW, male Wistar rats, until end of observation periods (2 and 14 days)): no treatment-related mortality or clinical symptoms occurred
- HED (human equivalent dose) ([2]; rat, in vivo): 0.4 mg/kg body weight
- maximum dose for human subjects receiving the initial clinical dose ([2]; rat, in vivo): 4 µg/kg body weight

Molecule: O=C([O-])CN(CCN(CC(=O)[O-])Cc1cc(CCC(=O)NCCCCCC(=O)NCCCC[C@H](NC(=O)N[C@@H](CCC(=O)O)C(=O)O)C(=O)O)ccc1[O-])Cc1cc(CCC(=O)O)ccc1[O-].[68Ga+3].[OH3+] [^68Ga-PSMA-11]
- effective radiation dose [3]: 2.4 mSv

Molecule: Ga-DOTA-MGS5: DOTA-MGS5 labeled with the stable isotope of gallium, reference standard
- IC50 [1]: 0.5 ± 0.1 nM

Molecule: DOTA-(DGlu)6-Ala-Tyr-Gly-Trp-Nle-Asp-Phe-NH2 [^177Lu-DOTA-PP-F11N, minigastrin analog radiolabeled with lutetium-177, in clinical studies]
- cell internalization [4]: ~ 20%

Molecule: DOTA-(DGlu)6-Ala-Tyr-Gly-Trp-Met-Asp-Phe-NH2 [^111In-CP04, minigastrin analog radiolabeled with indium-111, in clinical studies]
- cell uptake [5]: 14.4 ± 0.8%

Molecule: CCCC[C@@H](C(=O)N[C@@H](CC(=O)O)C(=O)N[C@@H](Cc1cccc2ccccc12)C(N)=O)N(C)C(=O)[C@H](Cc1c[nH]c2ccccc12)NC(=O)CNC(=O)[C@H](Cc1ccc(O)cc1)NC(=O)[C@H](C)NC(=O)[C@@H](CCC(=O)O)NC(=O)CN1CCN(CC(=O)O)CCN(CC(=O)O)CCN(CC(=O)O)CC1 [^68Ga-DOTA-MGS5, metal not drawn]
- maximum dose established as clinical dose ([2]; rat, in vivo): 50 µg
- uptake in blood ([6]; 1.5 h): 0.94 ± 0.08 % IA/g
- tissue uptake dose at 5 min ([6]; total radioactivity): 81.8 ± 2.5 %ID
- tissue uptake dose at 1.5 h ([6]; total radioactivity): 11.4 ± 1.7 %ID
- tissue uptake at 5 min [6, 7]: 17.6 ± 3.01 %ID/g
- tissue uptake at 20 min [6, 7]: 6.76 ± 1.17 %ID/g
- tissue uptake at 1 h [6, 7]: 1.99 ± 0.22 %ID/g
- tissue uptake at 1.5 h [6, 7]: 0.9 ± 0.1 %ID/g
- tissue uptake at 5 min [6, 8]: 2.77 ± 0.34 %ID/g
- tissue uptake at 20 min [6, 8]: 1.75 ± 0.93 %ID/g
- tissue uptake at 1 h [6, 8]: 0.62 ± 0.09 %ID/g
- tissue uptake at 1.5 h [6, 8]: 0.55 ± 0.09 %ID/g
- tissue uptake at 5 min [6, 9]: 5.11 ± 0.07 %ID/g
- tissue uptake at 20 min [6, 9]: 2.24 ± 0.57 %ID/g
- tissue uptake at 1 h [6, 9]: 0.7 ± 0.16 %ID/g
- tissue uptake at 1.5 h [6, 9]: 0.35 ± 0.02 %ID/g
- tissue uptake at 5 min [6, 10]: 2.42 ± 0.21 %ID/g
- tissue uptake at 20 min [6, 10]: 1.22 ± 0.25 %ID/g
- tissue uptake at 1 h [6, 10]: 0.75 ± 0.17 %ID/g
- tissue uptake at 1.5 h [6, 10]: 0.62 ± 0.08 %ID/g
- tissue uptake at 5 min [6, 11]: 17.6 ± 2.79 %ID/g
- tissue uptake at 20 min [6, 11]: 8.41 ± 1.33 %ID/g
- tissue uptake at 1 h [6, 11]: 5.11 ± 0.33 %ID/g
- tissue uptake at 1.5 h [6, 11]: 4.6 ± 0.32 %ID/g
- tissue uptake at 5 min [6, 12]: 5.02 ± 0.06 %ID/g
- tissue uptake at 20 min [6, 12]: 2.28 ± 0.31 %ID/g
- tissue uptake at 1 h [6, 12]: 1.21 ± 0.12 %ID/g
- tissue uptake at 1.5 h [6, 12]: 1 ± 0.06 %ID/g
- tissue uptake at 5 min [6, 13]: 8.51 ± 2.33 %ID/g
- tissue uptake at 20 min [6, 13]: 3.78 ± 0.53 %ID/g
- tissue uptake at 1 h [6, 13]: 1.1 ± 0.11 %ID/g
- tissue uptake at 1.5 h [6, 13]: 0.59 ± 0.1 %ID/g
- tissue uptake at 5 min [6, 14]: 2.89 ± 0.18 %ID/g
- tissue uptake at 20 min [6, 14]: 1.03 ± 0.21 %ID/g
- tissue uptake at 1 h [6, 14]: 0.49 ± 0.19 %ID/g
- tissue uptake at 1.5 h [6, 14]: 0.18 ± 0.04 %ID/g
- tissue uptake at 5 min [6, 15]: 4.03 ± 0.19 %ID/g
- tissue uptake at 20 min [6, 15]: 2.17 ± 0.16 %ID/g
- tissue uptake at 1 h [6, 15]: 1.5 ± 0.38 %ID/g
- tissue uptake at 1.5 h [6, 15]: 1.42 ± 0.3 %ID/g
- tissue uptake at 5 min [6, 16]: 3.53 ± 0.43 %ID/g
- tissue uptake at 20 min [6, 16]: 1.7 ± 0.38 %ID/g
- tissue uptake at 1 h [6, 16]: 0.71 ± 0.05 %ID/g
- tissue uptake at 1.5 h [6, 16]: 0.69 ± 0.09 %ID/g
- tissue uptake at 5 min [6, 17]: 6.63 ± 0.23 %ID/g
- tissue uptake at 20 min [6, 17]: 4.09 ± 0.98 %ID/g
- tissue uptake at 1 h [6, 17]: 4.63 ± 0.65 %ID/g
- tissue uptake at 1.5 h [6, 17]: 4.12 ± 0.3 %ID/g
